This note sets out measurements from patent publication US20100256109A1, “Azetidines As EP2 Antagonists” (priority 2007, published 2010).

The target of this assay is T1, recombinant human EP-2 receptor (Homo sapiens, UniProt P43116).
T1 construct: stably transfected with full length cDNA encoding human Prostaglandin E2; expressed in transfected cells
As to the kind of experiment: In vitro antagonist potency against recombinant human prostaglandin E2 (EP-2) receptor in CHO cells (cAMP). Type of assay: cell-based. The following applies: CHO cells expressing recombinant human EP-2 receptor, stimulated with PGE2 5 nM; cAMP readout; Ki from IC50 by Cheng-Prusoff; read-out: EP2 Ki. As to the method: 1.0 Measurement of In Vitro Antagonist Potency (IC50) of Compounds Against Recombinant Human Prostaglandin E2 Receptor in CHO Cells.
The prostaglandin E2 (EP-2) receptor is Gs coupled and agonism of the receptor by PGE2 results in activation of intracellular adenylate cyclase enzymes that synthesise the second messenger signalling molecule, adenosine 3′,5′-cyclic monophosphate (cAMP). CHO cells expressing the recombinant human EP-2 receptor are stimulated with PGE2 (5 nM) equivalent to approximately […] values to give the maximal cAMP signal. Decreases in cAMP levels following treatment of stimulated recombinant EP-2 cells with potential antagonist compounds were measured and potency (IC50) calculated as follows.
A Chinese hamster ovary (CHO) cell line stably transfected with full length cDNA encoding human Prostaglandin E2 was established using standard molecular biology methods. Test compounds were dissolved in dimethyl sulphoxide (DMSO) at 4 mM. 11 point half log unit increment dilution series of test compound were prepared in DMSO then diluted 1 in 40 in a buffer comprised of phosphate buffered saline (PBS) and 0.05% pluronic F-127 surfactant. Freshly cultured cells at 80-90% confluence were harvested and re-suspended in 90% growth media/10% DMSO. The cells were frozen using a planar freezer and stored in frozen aliquots in cryovials in liquid nitrogen until the day of the experiment. A vial of cells was defrosted in a 37° C. water bath for 2 min, then transferred to 10 ml of Dulbecco's Modified Eagle's Medium (DMEM). The cells were then centrifuged for 5 min at 1000 g and the pellet re-suspended at 1,000,000 cells/ml in DMEM. 5,000 cells (5 ul) were added to 5 ul of the compound dilution series in a 384 well assay plate and pre-incubated for 30 min at 37° C. 5 ul of agonist (15 nM PGE2 in PBS to give 5 nM FAC) was added and plates further incubated for 90 min at 37° C. The relative cAMP concentration in each well was then measured using a β-galactosidase enzyme fragment complementation method purchased in kit form as the Discoverx cAMP II kit from GE Healthcare, UK. […] Sigmoidal curves were fitted to plots of log10 inhibitor concentration vs. percent effect. IC50 estimates were determined as the concentration of test compound giving an effect half way between the bottom and top asymptotes of the sigmoidal dose response curve. Each experiment included an IC50 determination for the literature compound as a standard to track assay consistency and allow fair comparison between values obtained in different experiments. The EC50 of PGE2 is used in combination with the ligand concentration in the assay to determine Ki values for antagonist dose responses using the Cheng-Prusoff equation. Consequently an agonist dose response curve is carried out for each experiment using the same incubation as the antagonist plate.

T1 sequence (P43116 whole entry): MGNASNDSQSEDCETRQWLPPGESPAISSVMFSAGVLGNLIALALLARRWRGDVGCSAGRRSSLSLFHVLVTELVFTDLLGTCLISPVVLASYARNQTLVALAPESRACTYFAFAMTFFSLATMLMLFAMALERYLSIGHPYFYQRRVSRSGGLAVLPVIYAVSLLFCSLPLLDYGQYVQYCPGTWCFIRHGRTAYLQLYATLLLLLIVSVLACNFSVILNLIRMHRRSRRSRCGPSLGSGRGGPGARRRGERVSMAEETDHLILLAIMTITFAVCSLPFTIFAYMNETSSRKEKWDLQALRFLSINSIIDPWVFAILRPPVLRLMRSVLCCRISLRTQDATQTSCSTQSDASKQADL

Take `O=C(c1ccc(Cl)cc1)N1CC(Cn2nnc(-c3c(F)cccc3F)n2)(C(=O)O)C1` [Example 61]: the Ki is 7.47 nM. For the compound `O=C(c1ccc(Cl)cc1)N1CC(Cn2nnc(-c3ccc(C(F)(F)F)cc3)n2)(C(=O)O)C1` [Example 5], the Ki came to 1.64 nM.

The Ki is a dissociation constant, usually derived from enzyme kinetics or from competition with a known ligand.
